Measurements: patent US20170071880A1, “SELEGILINE TRANSDERMAL SYSTEM” (KAT Transdermals LLC, priority 2012, published 2017)

Assay: Solubility of selegiline in pressure sensitive adhesive polymers
Type: physicochemical
Description: The invention pertains to the transdermal delivery of selegiline for the treatment of depression, Parkinson's disease and other neurologic conditions. […] Acrylic pressure sensitive adhesives (PSAs) that could be used with the invention include those based on pure acrylate monomers as well as acrylate copolymers and terpolymers using for example as the comonomers vinyl acetate or hydrocarbon copolymers which may also include pacifiers and other pressure sensitive adhesive modifiers. Commercially available acrylate copolymers include those made by Henkel Corporation under the trade names of Duro-Tak 87-900A (DT 87-900A), 87-901A, 87-9301, 87-9088, and 87-4098. […] Of specific interest is the pressure sensitive adhesive DT 87-4098 which is the only copolymer mentioned above that contains vinyl acetate and which has low levels of peel, shear and tack which can then be enhanced by the incorporation of large amounts of plasticizing liquids such as selegiline. Since these polymers are not crosslinked, the resistance of movement of the drug through the patch itself will be very low thus enhancing the permeability through human skin. Thus it is an object of our invention to use non-crosslinked acrylate copolymer PSAs in matrix selegiline patches, especially PSA DT 87-4098, to provide for excellent permeation of selegiline through human skin. Another object of our invention is to use humectant/solubilizers in the matrix patch to provide for stabilization of the patch through absorption and immobilization of the liquids in the patch. For example such humectant/solubilizers include PVP, PVP/VA, hydroxypropylcellulose, hydroxyethylcellulose, hydroxypropylmethylcellulose, methyl cellulose, Sodium carboxymethyl cellulose, colloidal silica, Xantham Gum, and polyacrylic acid. By experiment we determined that the best humectant/solubilizer for matrix patches delivering selegiline is PVP/VA. PVP/VA has the ability to properly disperse/solubilize within the PSA matrix and to provide additional stability to the matrix, absorb the liquid selegiline base and prevent syneresis. In prior art, PVP was specifically excluded from the use in selegiline patches, which in our case, where we use non crosslinked acrylic PSAs, are shown to be very important to the development of a patch of our invention. It is another object of our invention to incorporate in the matrix PSA humectant/solubilizers, and especially PVP/VA, in the amounts of between 3 to 30% on the weight of the PSA, to provide for better syneresis, adhesion to skin and more rapid permeation of the drug through the skin. The ability of the composition of our patch is such that volatile and non-volatile enhancers can be included in the formulations, which are specifically excluded in the prior art Volatile enhancers for the case of our invention are liquids that have a vapor pressure at 20 degrees Centigrade which is higher than 0.2 mm Hg. Volatile enhancers such as Dimethylsulfoxide (DMSO), decylmethylsulfoxide lactates such as ethyl lactate and propyl lactate isobutyl lactate and lauryl lactate can be incorporated in the PSA matrix system of the selegiline patch of our invention. Thus it is another object of our invention to incorporate volatile enhancers in our patch so as to increase the permeation of selegiline through the human skin and reduce the size of the patch. […]

C#CCN(C)[C@H](C)Cc1ccccc1 [selegiline]
solubility of selegiline in PSA (in non-crosslinked acrylic copolymer PSA DT 87-4098): 59 wt %
solubility of selegiline in PSA (in non-crosslinked acrylic copolymer PSA DT 87-9088): 118 wt %
solubility of selegiline in PSA (in non-crosslinked acrylic copolymer PSA DT 87-9301): 81 wt %
solubility of selegiline in PSA (in polyisobutylene (PIB) PSA): 8 wt %
solubility of selegiline in PSA (in silicone PSA): 6 wt %
